The source of these data is paper PMC11796312, “Multifunctional, Fluorene‐Based Modulator of Cholinergic and GABAergic Neurotransmission as a Novel Drug Candidate for Palliative Treatment of Alzheimer's Disease” (Angewandte Chemie (International Ed. in English), 2024).

Data set [1] addresses T1, human serotonin 5-HT1A receptor (Homo sapiens, UniProt P08908).
T1 construct: host or cells: CHO-K1
The data set is described as follows: cAMP 5-HT1A functional assay. The class given is cell-based.
Experimental: Functional assays for 5-HT1A receptor
Tested and reference compounds were dissolved in DMSO to the concentration of 10 mM.
Dilutions were prepared in a 96-well microplate in assay buffers. For 5-HT1A receptors,
adenylyl cyclase activity was determined using cryopreserved CHO-K1 cells expressing the
The final concentration of DMSO in the test solutions was
The functional assay was performed with the CHO-K1 cells with expression of the 5-HT1A
The cells were cultured under selective conditions (400 μg/mL Geneticin G418)
(PerkinElmer). Thawed cells were resuspended in stimulation buffer (HBSS, 5 mM HEPES,
The same volume (10 μL) of cell
suspension was added to tested compounds with 10 μM forskolin. Samples were loaded onto
a white opaque half-area 96-well microplate. Cell stimulation was performed for 40 min at
room temperature. After incubation, cAMP measurements were performed with homogeneous
time-resolved fluorescence resonance energy transfer (TR-FRET) immunoassay using the
LANCE Ultra cAMP kit (PerkinElmer, USA). Ten microliters of EucAMP Tracer Working
Solution and 10 μL of ULight-anti-cAMP Tracer Working Solution were added, mixed, and
incubated for 1 h. The TR-FRET signal was read on an EnVision microplate reader
(PerkinElmer, USA). Emax values were defined as the ligand response expressed as a […]
which 50% of its maximal response was measured.

Data set [2] relates to SH-SY5Y cells. The data set is described as follows: Intracellular O2•-, DHE probe, SH-SY5Y. In kind it is cell-based, human.
Data set [3] in a line: Metabolic stability in human liver microsomes. The class given is in vitro ADME. To be noted: 120 min incubation with HLMs. As to the method: The in silico prediction of the most probable sites of metabolism was done by MetaSite 6.0.1 software (Molecular Discovery Ltd, Hertfordshire, UK). The metabolic pathways determination in vitro was performed by 120 min compounds incubation with human liver microsomes (HLMs) purchased from Sigma-Aldrich, St. Louis, MO, USA. The reactions were conducted in 10 mM Tris–HCl buffer (pH 7.4) at 37 °C in the presence of NADPH Regeneration System (Promega, Madison, WI, USA). UPLC/MS analyses were done using the Waters ACQUITY TQD system with the TQ Detector (Waters, Milford, USA).
UPLC chromatograms of the reaction mixtures and the proposed structures of metabolites.
Figure S46. UPLC spectra after 120 min incubation of compound 6 with HLMs. 89.57% of the parent compound remained in the reaction mixture. One metabolite (M1, m/z = 460.30) […]
(1 picture or pasted object on this page, not shown here)

Data set [4] deals with ICR-CD1 mice. The data set is described as follows: Dose safety verification after oral (i.g.) administration. The class given is in vivo. To be noted: 10 mg/kg i.g. As to the method: phosphatase (ALP), amylase, and lactate dehydrogenase (LDH) were measured in the accredited biochemical laboratory of the Department of Clinical Biochemistry and Diagnostics, University Hospital, Hradec Kralove, Czech Republic. Statistical data analysis was performed through IBM SPSS Statistics version 26 (IBM, Armonk, NY, USA) using the Kolmogorov-Smirnov and Shapiro-Wilk tests to test data normality. Due to normally distributed data, the Student´s t-test was used to assess the differences compared with the control group (p ≤ 0.05).
Samples of the liver and kidney were used for standard histopathological examination. Organs were fixed with 10% neutral buffered formalin (Bamed s.r.o., Ceske Budejovice, Czech Republic), histologically processed, and stained with hematoxylin and eosin (both Merck) according to Pejchal et al.[41] The histopathological changes were evaluated using a BX-51 microscope (Olympus, Tokyo, Japan).
Dose safety verification after oral administration
Mice were randomly assigned to the experimental groups of two males and two females per one selected dose (10 mg/kg) of 6 to verify its safety. 6 was administered by a probe (i.g., 0.1 mL/10 g of animal weight; 1% Tween 80). Treated animals were intensively observed for signs of toxicity; then, the animals were subjected to macroscopic examination. The blood was collected for biochemical analysis of glucose, urea, and creatinine concentration and the activity of alanine transaminase (ALT), aspartate transaminase (AST), gamma-glutamyl transferase (GGT), alkaline phosphatase (ALP), amylase, and creatine kinase (CK). Selected organs (terminal esophagus, stomach, duodenum, pancreas, kidney, and liver) were collected for histopathologic examination. […]

Data set [5] relates to Mouse Hippocampal Neuronal (HT-22). The data set is described as follows: Cell viability, PrestoBlue (neurotoxicity). The class given is cell-based. To be noted: Mus musculus, HT-22, 24 h. As to the method: (§1) Mouse Hippocampal Neuronal (HT-22) were cultured in Dulbecco's modified Eagle's Medium - high glucose (DMEM, Glutamx Thermo Fisher) supplemented with 10% inactivated fetal bovine serum heat (Thermo Fisher), 100 IU/ml penicillin (Sigma Aldrich) and 100 µg/ml streptomycin (Merck). Cells were cultured in flasks (area 75 cm2, Nunc), and incubated at 37°C, 5% CO2. For the measurement of cell viability cells were placed in a 96-well culture plate (2x10^4 cells per well, Falcon). Before the tests, cells were grown for 24 hours in the incubator (37°C, 5% CO2).
(§2) Preparation of stock solutions of tested compounds
(§3) Stock solutions were prepared in the concentration of 10 mM for test and reference compounds. Minimum 1 mg of each tested compound was weighed and dissolved in appropriate volume of dimethyl sulfoxide. Serial dilutions were prepared in DMSO and then the diluted compounds were transferred to PBS. Before assays eventual precipitation or opalescence was checked. All experiments were performed in duplicates, in three independent experiments. Cell viability was measured after 24 hours of incubation with tested cell line.
(§4) Cell viability was evaluated using the Presto Blue reagent (Thermo Fisher), according to the manufacturer procedures. Following 24 hours of incubation with the tested molecule, PrestoBlue reagent was added to a microplate well in an amount equal to one tenth of the remaining medium volume. The resulting mixture was incubated for 15 minutes at 37°C, and the fluorescence intensity (EX 530; EM 580 nm) was measured in the plate reader POLARstar Omega, (BMG Labtech). The results (viability values) are provided as a percentage of live cells with respect to DMSO (control sample).
(§5) Viability values were calculated as a percentage of live cells with respect to the control sample (DMSO). The negative control was medium without cells. IC 50 was determined by […]
(§6) nonlinear regression analysis using GraphPad Prism 9.0 software. All values are expressed as […]
(§7) Table S10. The viability of cells. neurotoxicity immuntoxicity
(§8) The results (viability values) are provided as a percentage of live cells with respect to DMSO (control sample)
(§9) Table S11. The viability of cells.

Data set [6] in a line: Cell viability, PrestoBlue (neurotoxicity). In kind it is cell-based. To be noted: mouse, 24 h, read-out: viability, neurotoxicity X [%]. How it is done: as §1, §2, §3, §4, §5, §6, §7, §8, §9

Values joined by “and” are separate entries in the source; they are usually repeats but may differ in a detail not shown here. Equal values may be shown once. “Also recorded” adds a separate entry of the source. Read-outs that look alike come from different tables or passages of the source.

T1 sequence (P08908 whole entry): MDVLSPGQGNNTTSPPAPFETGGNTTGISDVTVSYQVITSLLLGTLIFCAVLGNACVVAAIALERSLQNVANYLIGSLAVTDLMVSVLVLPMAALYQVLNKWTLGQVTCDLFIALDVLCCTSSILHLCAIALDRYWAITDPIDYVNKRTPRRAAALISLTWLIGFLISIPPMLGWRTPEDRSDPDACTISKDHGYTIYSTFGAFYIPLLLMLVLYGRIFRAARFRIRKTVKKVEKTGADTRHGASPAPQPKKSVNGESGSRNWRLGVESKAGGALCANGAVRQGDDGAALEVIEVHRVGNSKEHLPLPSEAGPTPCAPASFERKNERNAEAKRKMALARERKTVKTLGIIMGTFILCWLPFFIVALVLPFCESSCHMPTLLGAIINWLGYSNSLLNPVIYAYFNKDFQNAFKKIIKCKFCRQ

For the molecule `O[C@H](CNCC1CC1)[C@H](Cc1ccccc1)NC1c2ccccc2-c2ccccc21` [Compound 6], the Emax in data set [1] (read-out: 5-HT1A agonist mode E max % [10^-5 M]) was 15%. In addition, in data set [1] (read-out: 5-HT1A antagonist mode E max %), the Emax was 16%. Further, the “increase in intracellular O2•-” value in data set [2] (all concentrations and times) is given as “No significant increase”. The “decrease of O2•- level” value in data set [2] (conc. = IC50, 24 h) was determined as 15%. Moreover, the parent compound remaining in data set [3] is 90% and 89.57%. Besides, in data set [4], the Necropsy result is recorded as “no pathology of internal organs” and the signs of toxicity result was “no signs of poisoning occurred; also recorded: no signs of toxicity occurred”. For the same molecule, in data set [4] (48 h), the “ALP, plasma” value is recorded as 61.2 ± 6.2 U/L; the “ALT, plasma” value is listed as 30.0 ± 1.6 U/L; the “AST, plasma” value is 51.3 ± 7.0 U/L; the “Amylase, plasma” value is given as 2630 ± 110 U/L. Also, in data set [4] (48 h), the “CK, plasma” value came to 123 ± 25 U/L; the “Glucose, plasma” value is reported as 205 ± 16 mg/dL; the “Urea, plasma” value turned out to be 38.6 ± 2.5 mg/dL; the “blood biochemistry vs control” value is “no significant changes; also recorded: lack of significant changes in blood biochemistry”. For the same molecule, the histopathological examinations result in data set [4] (liver, kidney, esophagus, stomach, duodenum, pancreas) is listed as “no tissue damage”. The IC50 in data set [5] (read-out: NEUROTOXICITY IC50) is 23.1 µM. In addition, in data set [5] (read-out: NEUROTOXICITY pIC (converted)), the IC50 was 22.9 µM. In addition, in data set [6] (HT-22, 0.1 µM), the viability at 24 h, 0.1 µM came out at 99%. Moreover, the viability at 24 h, 1 µM in data set [6] (HT-22, 1 µM) worked out at 100%. Also, the viability at 24 h, 10 µM in data set [6] (HT-22, 10 µM) came to 99%. Besides, the viability at 24 h, 50 µM in data set [6] (HT-22, 50 µM) amounted to 9.5%. The viability at 24 h, 100 µM in data set [6] (HT-22, 100 µM, vs DMSO) turned out to be 1.7%.
